Measured values as given in ChEMBL document CHEMBL2331275, “Fluorescence study for selecting specific ligands toward HER2 receptor: an example of receptor fragment approach” (Eur J Med Chem, 2013).
Active and inactive are the calls of the source. No cut-off for these calls is given here.

Molecular target: Receptor tyrosine-protein kinase erbB-2 (Homo sapiens, UniProt P04626)
Assay: Binding affinity to synthetic peptide mimicking HER2 subdomain 4 (unknown origin) by fluorescence spectroscopic analysis

Sequence of Receptor tyrosine-protein kinase erbB-2 (P04626 whole entry): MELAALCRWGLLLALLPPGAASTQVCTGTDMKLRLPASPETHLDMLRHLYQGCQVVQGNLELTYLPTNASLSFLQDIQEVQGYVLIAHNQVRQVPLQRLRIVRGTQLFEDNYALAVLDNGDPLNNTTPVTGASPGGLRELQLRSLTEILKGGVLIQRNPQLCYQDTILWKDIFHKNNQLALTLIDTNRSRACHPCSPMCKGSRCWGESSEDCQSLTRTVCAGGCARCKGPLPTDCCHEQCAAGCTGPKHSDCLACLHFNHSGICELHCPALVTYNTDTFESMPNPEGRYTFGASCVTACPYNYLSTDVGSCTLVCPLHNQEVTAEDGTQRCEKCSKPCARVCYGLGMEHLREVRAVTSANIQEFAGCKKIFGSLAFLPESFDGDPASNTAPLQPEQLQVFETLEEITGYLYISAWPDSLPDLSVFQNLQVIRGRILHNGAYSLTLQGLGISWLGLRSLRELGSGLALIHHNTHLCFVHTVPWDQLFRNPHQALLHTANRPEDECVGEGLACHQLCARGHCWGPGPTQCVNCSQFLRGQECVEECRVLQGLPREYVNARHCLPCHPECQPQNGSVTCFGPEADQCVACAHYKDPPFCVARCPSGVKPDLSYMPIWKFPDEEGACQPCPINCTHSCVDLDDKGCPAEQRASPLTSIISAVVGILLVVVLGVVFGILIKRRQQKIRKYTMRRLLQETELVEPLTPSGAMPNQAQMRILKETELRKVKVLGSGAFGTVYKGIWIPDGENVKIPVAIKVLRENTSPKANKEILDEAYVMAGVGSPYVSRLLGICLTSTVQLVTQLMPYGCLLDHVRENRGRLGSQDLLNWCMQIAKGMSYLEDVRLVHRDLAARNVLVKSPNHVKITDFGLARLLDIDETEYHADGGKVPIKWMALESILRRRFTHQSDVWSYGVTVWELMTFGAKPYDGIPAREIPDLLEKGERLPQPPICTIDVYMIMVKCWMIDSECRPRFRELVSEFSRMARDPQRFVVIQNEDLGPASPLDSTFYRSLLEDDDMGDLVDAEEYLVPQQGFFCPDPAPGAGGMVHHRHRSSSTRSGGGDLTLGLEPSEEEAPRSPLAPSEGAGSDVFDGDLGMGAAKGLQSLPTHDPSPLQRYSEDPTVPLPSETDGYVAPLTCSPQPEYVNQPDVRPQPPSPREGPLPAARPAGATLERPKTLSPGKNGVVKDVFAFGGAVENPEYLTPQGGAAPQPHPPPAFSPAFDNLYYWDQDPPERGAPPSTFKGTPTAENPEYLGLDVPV

| Activity | Kd | Substance |
| --- | --- | --- |
| inactive | – | Ac-CSRWGGDGFYAMDYWG-NH2 |
| – | 10.2 nM | Ac-QDVNTAVAW-NH2 |
| – | 446 nM | Ac-ARIYPTNGYTRY-NH2 |
| – | 174 nM | Ac-CQQHYTTPPTFG-NH2 |
